Test results reported in US20260324651A1 (priority 2022, published 2026).

Experiments:
[1] = tested on: F. culmorum; test: Inhibitory effect of pure lipopeptides and their combinations on fungal growth
Method: (§1) To further explore the potential synergistic effect between bioactive metabolites assays with single families of bioactive compounds and their combinations were performed.
(§2) Increasing concentrations of pure stocks of surfactin (Sigma S3523, FIG. 4A), fengycin (Sigma SMB00292, FIG. 4B) or iturin (Sigma 11774, FIG. 4C) were added to 48-well microtiter plates containing PDB medium and a fixed fungal spore concentration. Inhibitory effect over two different phytopathogenic species was assayed, F. culmorum (FIG. 4, left) and B. cinerea (FIG. 4, right). Plates were incubated at 25° C. without shaking for 60 hours (in dark conditions) and fungal growth was measured by spectrophotometry at 600 nm.
(§3) Fungal growth inhibition of increasing concentrations of single compounds was compared with compound combinations, where a fixed concentration of one of them was assayed in combination with increasing concentrations of the second metabolite.

[2] = tested on: B. cinerea; test: as above
Method: as §1, §2, §3

[3] = single lipopeptide, 25° C., 60 hours
[4] = in the presence of surfactin, vs fengycin alone
[5] = with surfactin at 100-200 μg/ml

Substance | inhibitory effect on growth at high concentrations ([1]; 200-400 μg/ml surfactin alone) | inhibition of fungal growth [1, 3] | inhibitory effect on growth at high concentrations ([2]; 200-400 μg/ml surfactin alone) | inhibition of fungal growth [2, 3] | effective concentration for strong growth inhibition [1, 3] [µg/mL] | effective concentration for strong growth inhibition [2, 3] [µg/mL] | increase of bioactivity of fengycin in the presence of surfactin [1, 4] | effective concentration of fengycin required to inhibit growth [1, 5] [µg/mL] | increase of bioactivity of fengycin in the presence of surfactin [2, 4] | effective concentration of fengycin required to inhibit growth [2, 5] [µg/mL]
surfactin | very modest and barely decreased the growth | only compromised pathogen growth very weakly | very modest and barely decreased the growth | only compromised pathogen growth very weakly |  |  |  |  |  | 
iturin |  | potent inhibition of fungal growth |  | potent inhibition of fungal growth | 9 | 9 |  |  |  | 
fengycin |  | potent inhibition of fungal growth |  | potent inhibition of fungal growth |  |  | up to 6 fold | 12.5 | up to 6 fold | 12.5
